Reference: ChEMBL document CHEMBL4602620, “N,O-Dialkyl deoxynojirimycin derivatives as CERT START domain ligands” (Bioorg Med Chem Lett, 2020)

Assays:
Saccharomyces cerevisiae = test: Inhibition of Saccharomyces cerevisiae alpha-glucosidase at 0.2 mM relative to control
Prunus dulcis = test: Inhibition of almond beta-glucosidase at 0.2 mM relative to control
Aspergillus niger = test: Inhibition of Aspergillus niger amyloglucosidase at 0.2 mM relative to control
[1] = target: T1, Ceramide transfer protein (Homo sapiens) (UniProt Q9Y5P4); test: Displacement of fluorescent tagged ceramide from immobilized His-tagged CERT START domain (unknown origin) assessed as reduction in residual fluorescence activity by FLINT assay relative to control; parameters: concentration or dose not given beside the values; settings: concentration not given here
T1 sequence (whole entry): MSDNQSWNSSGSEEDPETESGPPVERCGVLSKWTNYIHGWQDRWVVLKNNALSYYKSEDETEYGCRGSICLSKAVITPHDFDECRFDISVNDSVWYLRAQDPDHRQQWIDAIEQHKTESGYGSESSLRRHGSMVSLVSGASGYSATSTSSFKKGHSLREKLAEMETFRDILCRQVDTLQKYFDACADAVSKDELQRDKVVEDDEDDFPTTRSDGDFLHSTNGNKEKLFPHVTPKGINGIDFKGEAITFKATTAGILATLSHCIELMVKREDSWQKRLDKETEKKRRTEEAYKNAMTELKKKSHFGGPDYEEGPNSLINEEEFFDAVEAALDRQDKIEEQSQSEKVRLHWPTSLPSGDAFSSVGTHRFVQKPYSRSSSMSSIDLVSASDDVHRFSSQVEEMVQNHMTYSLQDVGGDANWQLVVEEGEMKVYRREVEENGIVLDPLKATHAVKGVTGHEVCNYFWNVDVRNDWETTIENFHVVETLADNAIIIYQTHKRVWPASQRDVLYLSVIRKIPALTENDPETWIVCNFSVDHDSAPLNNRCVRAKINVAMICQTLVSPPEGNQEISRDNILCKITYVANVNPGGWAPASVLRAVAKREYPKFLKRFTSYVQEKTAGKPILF

SMILES	inhibition (Saccharomyces cerevisiae)	inhibition (Prunus dulcis)	inhibition (Aspergillus niger)	inhibition [1]
CCCCCCCCCCCCN1C[C@H](O)[C@@H](O)[C@H](O)[C@H]1CO	13%	39%	88%	25%
CCCCCCCCCCCCC/C=C/[C@@H](O)[C@H](CO)NC(=O)CCCCCCCCCCCCCCC	–	–	–	25%
CCCCCCCCCCCCO[C@H]1[C@H](O)[C@@H](O)CN(CCCCCCCCCCCC)[C@@H]1CO	7.3%	1.7%	11%	20%
CCCCCCCCCCCC(=O)N[C@@H](CO)C[C@H](O)c1ccccc1	–	–	–	25%
CCCCCCCCCCCCO[C@H]1CN(CCCCCCCCCCCC)C[C@@H](O)[C@@H]1O	–	–	–	25%
CCCCCCCCCCCCO[C@H]1CN(CCCCCCCCCCCC)[C@H](CO)[C@@H](O)[C@@H]1O	5.1%	0.65%	6%	40%
